Data on 4 compounds can be found in patent US20230104503A1, “SMALL MOLECULE COMPOUNDS” (THE REGENTS OF THE UNIVERSITY OF CALIFORNIA, priority 2021, published 2023).

The subject of one data set is naïve CD4+ mouse T-cells. The data set is described as follows: FACS for expansion of CD62L+ memory T-cells. The class given is cell-based. As for the experimental part: RAP23 was further evaluated by treating naïve CD4+ T-cells at multiple concentrations (1 nM to 1 uM) for expansion of CD62L+ memory T-cells. […] These 5 compounds were identified to have reduced immunosuppression (with improved safety) with maximum and durable expansion of memory T-cells.

The next data set relates to mTOR. As to the kind of experiment: Phospho-flow (FACS) of phospho-p70S6K / p-S6 in activated mouse T-cells. The data set is classed as cell-based. As to the method: Whole splenocyte from OT1 B6 mice was extracted. […] Cells were activated with compounds for 30 mins, 1 hour, 2 hours, and overnight. For each time point, p-S6, a downstream of mTORC1 pathway, was gated on low and high based on the DMSO and no stimulation control.

Data set [1] has as its system CD8 cells isolated from p14 transgenic mice. The data set is described as follows: CD8 CTV-labelled proliferation assay. The class given is cell-based, mouse. To be noted: activated for 72 hours; relative to RAP35 and rapamycin. As to the method: The five analogs and rapamycin were assayed for their effect on proliferation and correlation to p70S6K inhibitory activity. […] The proliferation was measured by FACS. The five analogs were tested at varying concentrations (10 nM, 100 nM, and 100 μM), activated for 72 hours with rapamycin and DMSO treated controls.
CD8 cells were isolated from p14 transgenic mice, then labelled with CTV. The labelled cells then were activated with plate-bound anti-CD3 (5 μg/mL) and soluble anti-CD28 (2 μg/mL), along with rapamycin, rapamycin analog, or DMSO. After activation of 48 hours and 72 hours, the cells were collected to assay the CVT labelling signal using flow cytometry. All rapamycin analogs decrease proliferation in CD8 cells, with varying potency (FIG. 12).

Another data set concerns conventional T cells. The data set is described as follows: Treg assays for RAP35: culture of conventional T cells. The data set is classed as cell-based.
The next data set concerns naïve CD4+ mouse T cells. The data set is described as follows: FACS of stimulated naïve CD4+ mouse T-cells for CD4+CD25+FOXP3+. To be noted: 1 uM.
For another data set, the system named is Treg cells. As to the kind of experiment: Treg assays for RAP35: Treg cells with expander beads. The data set is classed as cell-based. To be noted: 100 nM.
Data set [2] is described as follows: Stability during semi-preparative HPLC. The data set is classed as physicochemical. To be noted: 65% acetonitrile with 35% water, 50° C.
Experimental: The crude was then dissolved in acetonitrile, and the resulting solution was subjected to semi-preparation using an Agilent Zorbax column (SB-C18, 5 μm, 9.4×250 mm, Agilent Technologies Inc., CA) heated to 50° C. by isocratic elution of 65% acetonitrile with 35% water at a flow rate of 3.5 mL/min. The absorbance at 278 nm wavelength was monitored.
The conditions of data set [3]: humans; cited from earlier work.

Consider `CO[C@H]1C[C@@H]2CC[C@@H](C)[C@@](O)(O2)C(=O)C(=O)N2CCCC[C@H]2C(=O)O[C@H]([C@H](C)C[C@@H]2CC[C@@H](O)[C@H](OC)C2)CC(=O)[C@H](C)/C=C(\C)[C@@H](O)[C@@H](OC)C(=O)[C@H](C)CC/C=C/C=C/C=C/1C` [RAP23, (3S,6R,7E,9R,10R,12R,15E,17E,19E,21S,23S,26R,27R,34aS)-9,27-dihydroxy-3-((R)-1-((1S,3R,4R)-4-hydroxy-3-methoxycyclohexyl)propan-2-yl)-10,21-dimethoxy-6,8,12,20,26-pentamethyl-9,10,12,13,14,21,22,23,24,25,26,27,32,33,34,34a-hexadecahydro-3H-23,27-epoxypyrido[2,1-c][1]oxa[4]azacyclohentriacontine-1,5,11,28,29(4H,6H,31H)-pentaone], for which the “portion of cells possessing a phospho-p70S6K high/CD62L+high phenotype” value with naïve CD4+ mouse T-cells (1 nM to 1 uM) was 7-10%. In the data set on naïve CD4+ mouse T-cells (overall assessment), the “generation of memory versus inhibition of proliferation” value is on record as “promote potent generation of memory without potently inhibiting proliferation”. In addition, the “phospho-p70S6K low/CD62L+high phenotype” value in the data set on naïve CD4+ mouse T-cells (relative to all doses of rapamycin (including 1 nM)) is on record as “reduced”. Moreover, the “inhibition of the p70S6 high signal” value with mTOR (even at 1 uM) was “never fully inhibited”. Also, the “proliferation of CTV-labelled CD8 cells” value in data set [1] is on record as “increased proliferation”.

For the compound `CO[C@H]1C[C@@H]2CC[C@@H](C)[C@@](O)(O2)C(=O)C(=O)N2CCCC[C@H]2C(=O)O[C@H](CC[C@@H]2CC[C@@H](O)[C@H](OC)C2)CC(=O)[C@H](C)/C=C(\C)[C@@H](O)[C@@H](OC)C(=O)[C@H](C)C[C@H](C)/C=C/C=C/C=C/1C` [RAP35, (3R,6R,7E,9R,10R,12R,14S,15E,17E,19E,21S,23S,26R,27R,34aS)-9,27-dihydroxy-3-(2-((1S,3R,4R)-4-hydroxy-3-methoxycyclohexyl)ethyl)-10,21-dimethoxy-6,8,12,14,20,26-hexamethyl-9,10,12,13,14,21,22,23,24,25,26,27,32,33,34,34a-hexadecahydro-3H-23,27-epoxypyrido[2,1-c][1]oxa[4]azacyclohentriacontine-1,5,11,28,29(4H,6H,31H)-pentaone], the p70S6 high cells entry in the data set on mTOR (following overnight stimulation, therapeutic concentrations (1-200 nM)) was “significantly reduced”. The “anti-inflammatory effects (Cell Proliferation Dye and phenotypic markers)” value with conventional T cells (100 nM) is listed as “promising anti-inflammatory effects”. In addition, in the data set on conventional T cells (100 nM, conventional T cells), the CCR7 expression result is “increased” and the CD45RO expression entry was “decreased”. In addition, the “mitochondrial membrane potential (MitoProbe)” value with conventional T cells (compared to stimulated CD3 T cells) was “reduced”. In addition, the “FOXP3+ count” value in the data set on naïve CD4+ mouse T cells worked out at 45.8. In addition, the “frequency of Treg cells” value in the data set with Treg cells is on record as “reduce”. In the data set with Treg cells (Treg cells), the “expression of CCR7” value is listed as “reduce”, the “expression of CD45RO” value is on record as “reduce”, the “expression of CXCR3” value was “reduce” and the “phosphorylation of 4EBP1” value is listed as “reduce”. Moreover, in the data set with Treg cells (Treg cells), the “phosphorylation of S6” value is on record as “reduce”.

Take `CO[C@H]1C[C@@H]2CC[C@@H](C)[C@@](O)(O2)C(=O)C(=O)N2CCCC[C@H]2C(=O)O[C@H](CC[C@@H]2CC[C@@H](O)[C@H](OC)C2)CC(=O)[C@H](C)/C=C(\C)[C@@H](O)CC(=O)[C@H](C)C[C@H](C)/C=C/C=C/C=C/1C` [RAP35/27A, (3R,6R,7E,9S,12R,14S,15E,17E,19E,21S,23S,26R,27R,34aS)-9,27-dihydroxy-3-(2-((1S,3R,4R)-4-hydroxy-3-methoxycyclohexyl)ethyl)-21-methoxy-6,8,12,14,20,26-hexamethyl-9,10,12,13,14,21,22,23,24,25,26,27,32,33,34,34a-hexadecahydro-3H-23,27-epoxypyrido[2,1-c][1]oxa[4]azacyclohentriacontine-1,5,11,28,29(4H,6H,31H)-pentaone]: the “stability in the process of semi-preparation” value in data set [2] was “tended to be unstable”.

For `CO[C@H]1C[C@@H]2CC[C@@H](C)[C@@](O)(O2)C(=O)C(=O)N2CCCC[C@H]2C(=O)O[C@H]([C@H](C)C[C@@H]2CC[C@@H](O)[C@H](OC)C2)CC(=O)[C@H](C)/C=C(\C)[C@@H](O)[C@@H](OC)C(=O)[C@H](C)C[C@H](C)/C=C/C=C/C=C/1C` [rapamycin, reference compound], the terminal half-life in data set [3] was 24 to 48 h. Besides, the “FOXP3+ count” value with naïve CD4+ mouse T cells is 53.3.
